This note sets out measurements from patent publication US12351556B2, “Pyridin-2(1H)one derivatives, their preparation and their use for the treatment of pain” (INSTITUT NATIONAL DE LA SANTE ET DE LA RECHERCHE MEDICALE …, priority 2019, dated 2025).

One test has as its target MLK3 (Homo sapiens (Human), UniProt Q16584). Briefly: ICKP protein kinase panel screening. Type of test: biochemical. The following applies: duplicate assays, read-out: mean % residual activity. On the procedure:
(§1) FIG. 3 illustrates the human kinome. Compound 69 was evaluated at the International Center For Kinase Profiling (ICKP, Dundee, Scotland) toward a panel of 50 protein kinases that provide a representative sampling of the human kinome. The results were expressed as the mean percentage of residual activity at 10 μM concentration (duplicate assays). Small disks: ≥65%, larger disk: 19%. The black square indicates the kinome region containing protein kinases evaluated in a second screening (FIG. 4, Table 4). The tree was generated using the Kinome Render software, and the illustration reproduced courtesy of Cell Signaling Technology, Inc. (www.cellsignal.com) Chartier et al PeerJ 2013, 1:e126.
(§2) Results are expressed as the mean percentage of residual activity at 10 μM (Table 3) or 1 μM (Table 4). They are illustrated on FIGS. 3 and 4.
(§3) Studies were undertaken to identify the possible biological target(s) of compound 69. The activation in neurons of PK such as PKCγ, ERK or p38 MAPK can contribute to pain hypersensitivity. Therefore, it was decided to screen compound 69 toward a panel of 50 PKs that provide a representative sampling of the human kinome (FIG. 3, Table 3) (Biochem. J. 2007, 408, 297-315). In this panel, p38α MAPK was identified as the privileged target, with 19% of kinase residual activity at 10 μM compound concentration.

For another test, the target named is SRPK1 (Homo sapiens (Human), UniProt Q96SB4). Briefly: ICKP protein kinase panel screening. Type of test: biochemical. The settings on record: duplicate assays, read-out: mean % residual activity. On the procedure:
as §1, §2, §3

Another test addresses PRK2 (Homo sapiens (Human), UniProt Q16513). Briefly: ICKP protein kinase panel screening. The format is biochemical. The following applies: duplicate assays, read-out: mean % residual activity. The protocol:
as §1, §2, §3

The next test concerns the target PAK4 (Homo sapiens (Human), UniProt O96013). The test can be described thus: ICKP protein kinase panel screening. The format is biochemical. The settings on record: duplicate assays, read-out: mean % residual activity. The protocol:
as §1, §2, §3

Another test deals with SmMLCK (Homo sapiens (Human), UniProt Q15746). Briefly: ICKP protein kinase panel screening. The following applies: duplicate assays, read-out: mean % residual activity. The format is biochemical. On the procedure:
as §1, §2, §3

The next test concerns the target VEG-FR (Homo sapiens (Human), UniProt P17948). Briefly: ICKP protein kinase panel screening. The format is biochemical. The following applies: duplicate assays, read-out: mean % residual activity. The protocol:
as §1, §2, §3

In a further test the target is PKBa (Homo sapiens (Human), UniProt P31749). Briefly: ICKP protein kinase panel screening. Type of test: biochemical. The following applies: duplicate assays, read-out: mean % residual activity. The protocol: as §1, §2, §3
The target of another test is CAMKKb (Homo sapiens (Human), UniProt Q96RR4). Briefly: ICKP protein kinase panel screening. The format is biochemical. The following applies: duplicate assays, read-out: mean % residual activity. The protocol:
as §1, §2, §3

The test system of test [1] is panel of 13 protein kinases. The test can be described thus: ICKP screening, whole panel of 13 protein kinases. Type of test: biochemical, human. The following applies: 1 μM. On the procedure:
FIG. 4 illustrates the studies carried out for compounds 67 and 69. Compounds 67 and 69 (FIG. 4B) were evaluated at the International Center For Kinase Profiling (ICKP, Dundee, Scotland) toward a panel of 13 protein kinases. The results (FIG. 4A) were expressed as the mean percentage of residual activity at 1 μM concentration (duplicate assays). Small disks: ≥90%, larger disk: 59%, for both compounds. The tree was generated using the Kinome Render software, and the illustration reproduced courtesy of Cell Signaling Technology, Inc. (www.cellsignal.com) Chartier et al PeerJ 2013, 1:e126.
as §2
The selectivity of compound 69 was evaluated at 1 μM toward another panel containing all four p38 MAPK isoforms, ERK1, ERK2 as well as other protein kinases close to p38α MAPK in the kinome phylogenetic tree (FIG. 4, Table 4). […] Its IC50 toward p38α MAPK was determined, showing a value in the micromolar range (IC50=3.0±0.1 μM).

Test [2] concerns panel of 50 protein kinases. The test can be described thus: ICKP screening, whole panel of 50 protein kinases. The following applies: 10 μM. The format is biochemical, human. The protocol:
as §1, §2, §3

“Also recorded” adds a separate entry of the source.

Chain of PRK2 (Q16513 whole entry): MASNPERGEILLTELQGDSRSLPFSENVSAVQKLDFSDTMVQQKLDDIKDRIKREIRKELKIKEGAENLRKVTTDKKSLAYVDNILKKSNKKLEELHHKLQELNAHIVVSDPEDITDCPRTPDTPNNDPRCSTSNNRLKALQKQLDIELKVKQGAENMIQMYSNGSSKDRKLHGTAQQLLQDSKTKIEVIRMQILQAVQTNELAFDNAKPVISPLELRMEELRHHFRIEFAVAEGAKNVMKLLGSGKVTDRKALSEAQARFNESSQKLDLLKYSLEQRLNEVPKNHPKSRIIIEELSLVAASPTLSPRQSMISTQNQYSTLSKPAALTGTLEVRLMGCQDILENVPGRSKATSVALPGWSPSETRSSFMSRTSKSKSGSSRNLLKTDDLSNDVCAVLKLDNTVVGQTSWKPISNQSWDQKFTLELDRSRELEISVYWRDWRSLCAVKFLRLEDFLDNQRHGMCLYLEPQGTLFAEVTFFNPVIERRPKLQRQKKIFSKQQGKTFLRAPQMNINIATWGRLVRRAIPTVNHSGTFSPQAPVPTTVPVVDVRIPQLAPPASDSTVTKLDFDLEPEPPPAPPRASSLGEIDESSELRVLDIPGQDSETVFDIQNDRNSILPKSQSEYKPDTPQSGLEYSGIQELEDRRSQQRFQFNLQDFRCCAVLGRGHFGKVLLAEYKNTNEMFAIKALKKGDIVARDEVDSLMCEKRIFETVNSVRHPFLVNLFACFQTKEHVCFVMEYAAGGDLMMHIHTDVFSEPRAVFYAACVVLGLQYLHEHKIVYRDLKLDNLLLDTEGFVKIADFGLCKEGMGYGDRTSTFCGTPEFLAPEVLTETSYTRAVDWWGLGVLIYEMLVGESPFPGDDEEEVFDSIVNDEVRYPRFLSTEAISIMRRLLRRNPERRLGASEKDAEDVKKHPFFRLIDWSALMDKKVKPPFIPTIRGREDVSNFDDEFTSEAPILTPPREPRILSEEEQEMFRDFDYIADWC
Chain of MLK3 (Q16584 whole entry): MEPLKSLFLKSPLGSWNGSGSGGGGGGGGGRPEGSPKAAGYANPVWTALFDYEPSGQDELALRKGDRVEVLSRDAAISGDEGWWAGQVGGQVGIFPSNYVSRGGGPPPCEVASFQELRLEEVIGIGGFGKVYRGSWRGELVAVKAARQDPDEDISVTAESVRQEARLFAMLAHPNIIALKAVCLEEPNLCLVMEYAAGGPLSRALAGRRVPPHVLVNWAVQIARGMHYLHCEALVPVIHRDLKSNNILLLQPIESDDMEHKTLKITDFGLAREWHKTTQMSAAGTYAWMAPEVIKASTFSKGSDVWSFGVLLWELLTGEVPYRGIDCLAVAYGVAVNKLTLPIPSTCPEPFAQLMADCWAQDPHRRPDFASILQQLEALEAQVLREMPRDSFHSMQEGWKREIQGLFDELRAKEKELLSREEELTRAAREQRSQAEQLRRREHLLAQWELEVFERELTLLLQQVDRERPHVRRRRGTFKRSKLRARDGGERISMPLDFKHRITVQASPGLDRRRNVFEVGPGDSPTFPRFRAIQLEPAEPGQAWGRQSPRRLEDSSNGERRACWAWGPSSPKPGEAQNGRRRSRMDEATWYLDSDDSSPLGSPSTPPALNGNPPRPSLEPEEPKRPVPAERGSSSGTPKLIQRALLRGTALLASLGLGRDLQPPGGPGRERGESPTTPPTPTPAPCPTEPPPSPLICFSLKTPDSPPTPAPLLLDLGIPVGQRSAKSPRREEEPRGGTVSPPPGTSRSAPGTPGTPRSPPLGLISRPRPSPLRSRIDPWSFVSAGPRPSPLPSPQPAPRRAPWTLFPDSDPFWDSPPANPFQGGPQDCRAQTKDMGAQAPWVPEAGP
Chain of PAK4 (O96013 whole entry): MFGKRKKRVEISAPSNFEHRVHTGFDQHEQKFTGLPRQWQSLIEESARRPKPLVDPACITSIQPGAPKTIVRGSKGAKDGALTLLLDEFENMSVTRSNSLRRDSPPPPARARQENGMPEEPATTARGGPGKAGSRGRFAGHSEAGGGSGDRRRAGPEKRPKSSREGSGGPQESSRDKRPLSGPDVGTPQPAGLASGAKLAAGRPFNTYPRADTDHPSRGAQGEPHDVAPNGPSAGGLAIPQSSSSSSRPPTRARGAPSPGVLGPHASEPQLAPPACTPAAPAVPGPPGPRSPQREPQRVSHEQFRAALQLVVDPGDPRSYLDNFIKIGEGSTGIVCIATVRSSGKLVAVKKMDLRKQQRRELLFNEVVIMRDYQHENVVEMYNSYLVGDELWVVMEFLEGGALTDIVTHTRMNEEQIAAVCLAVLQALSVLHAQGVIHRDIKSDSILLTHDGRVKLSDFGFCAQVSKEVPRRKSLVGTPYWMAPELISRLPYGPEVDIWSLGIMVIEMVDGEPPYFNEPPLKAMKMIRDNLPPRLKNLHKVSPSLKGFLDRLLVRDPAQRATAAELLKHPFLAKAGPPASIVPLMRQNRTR
Chain of CAMKKb (Q96RR4 whole entry): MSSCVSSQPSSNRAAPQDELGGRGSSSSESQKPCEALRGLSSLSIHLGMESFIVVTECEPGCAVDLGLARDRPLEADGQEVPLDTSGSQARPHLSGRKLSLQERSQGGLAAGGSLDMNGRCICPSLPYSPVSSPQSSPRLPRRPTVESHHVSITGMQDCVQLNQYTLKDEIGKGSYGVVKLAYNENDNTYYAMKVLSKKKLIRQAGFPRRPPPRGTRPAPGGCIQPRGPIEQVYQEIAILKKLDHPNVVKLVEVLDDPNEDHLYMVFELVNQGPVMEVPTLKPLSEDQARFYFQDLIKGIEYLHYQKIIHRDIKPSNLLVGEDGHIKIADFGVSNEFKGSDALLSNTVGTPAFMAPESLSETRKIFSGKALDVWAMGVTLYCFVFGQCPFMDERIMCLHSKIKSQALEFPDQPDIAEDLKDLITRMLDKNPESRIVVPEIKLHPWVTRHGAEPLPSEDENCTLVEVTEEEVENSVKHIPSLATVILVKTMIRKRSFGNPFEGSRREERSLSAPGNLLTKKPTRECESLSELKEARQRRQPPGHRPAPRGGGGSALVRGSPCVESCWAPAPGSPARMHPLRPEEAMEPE
Chain of PKBa (P31749 whole entry): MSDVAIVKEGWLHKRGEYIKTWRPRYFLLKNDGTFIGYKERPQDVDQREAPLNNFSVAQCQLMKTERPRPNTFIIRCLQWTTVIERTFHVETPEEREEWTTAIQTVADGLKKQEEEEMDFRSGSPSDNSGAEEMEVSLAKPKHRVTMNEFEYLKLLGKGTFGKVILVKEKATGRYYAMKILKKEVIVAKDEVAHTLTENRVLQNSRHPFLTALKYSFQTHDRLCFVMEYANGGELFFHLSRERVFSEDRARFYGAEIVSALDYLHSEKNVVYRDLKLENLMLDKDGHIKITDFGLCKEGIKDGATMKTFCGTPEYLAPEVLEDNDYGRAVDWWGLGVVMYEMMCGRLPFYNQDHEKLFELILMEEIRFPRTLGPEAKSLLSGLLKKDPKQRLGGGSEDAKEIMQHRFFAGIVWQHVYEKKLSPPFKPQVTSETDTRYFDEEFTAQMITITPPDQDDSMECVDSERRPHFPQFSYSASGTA
Chain of VEG-FR (P17948 27-1338): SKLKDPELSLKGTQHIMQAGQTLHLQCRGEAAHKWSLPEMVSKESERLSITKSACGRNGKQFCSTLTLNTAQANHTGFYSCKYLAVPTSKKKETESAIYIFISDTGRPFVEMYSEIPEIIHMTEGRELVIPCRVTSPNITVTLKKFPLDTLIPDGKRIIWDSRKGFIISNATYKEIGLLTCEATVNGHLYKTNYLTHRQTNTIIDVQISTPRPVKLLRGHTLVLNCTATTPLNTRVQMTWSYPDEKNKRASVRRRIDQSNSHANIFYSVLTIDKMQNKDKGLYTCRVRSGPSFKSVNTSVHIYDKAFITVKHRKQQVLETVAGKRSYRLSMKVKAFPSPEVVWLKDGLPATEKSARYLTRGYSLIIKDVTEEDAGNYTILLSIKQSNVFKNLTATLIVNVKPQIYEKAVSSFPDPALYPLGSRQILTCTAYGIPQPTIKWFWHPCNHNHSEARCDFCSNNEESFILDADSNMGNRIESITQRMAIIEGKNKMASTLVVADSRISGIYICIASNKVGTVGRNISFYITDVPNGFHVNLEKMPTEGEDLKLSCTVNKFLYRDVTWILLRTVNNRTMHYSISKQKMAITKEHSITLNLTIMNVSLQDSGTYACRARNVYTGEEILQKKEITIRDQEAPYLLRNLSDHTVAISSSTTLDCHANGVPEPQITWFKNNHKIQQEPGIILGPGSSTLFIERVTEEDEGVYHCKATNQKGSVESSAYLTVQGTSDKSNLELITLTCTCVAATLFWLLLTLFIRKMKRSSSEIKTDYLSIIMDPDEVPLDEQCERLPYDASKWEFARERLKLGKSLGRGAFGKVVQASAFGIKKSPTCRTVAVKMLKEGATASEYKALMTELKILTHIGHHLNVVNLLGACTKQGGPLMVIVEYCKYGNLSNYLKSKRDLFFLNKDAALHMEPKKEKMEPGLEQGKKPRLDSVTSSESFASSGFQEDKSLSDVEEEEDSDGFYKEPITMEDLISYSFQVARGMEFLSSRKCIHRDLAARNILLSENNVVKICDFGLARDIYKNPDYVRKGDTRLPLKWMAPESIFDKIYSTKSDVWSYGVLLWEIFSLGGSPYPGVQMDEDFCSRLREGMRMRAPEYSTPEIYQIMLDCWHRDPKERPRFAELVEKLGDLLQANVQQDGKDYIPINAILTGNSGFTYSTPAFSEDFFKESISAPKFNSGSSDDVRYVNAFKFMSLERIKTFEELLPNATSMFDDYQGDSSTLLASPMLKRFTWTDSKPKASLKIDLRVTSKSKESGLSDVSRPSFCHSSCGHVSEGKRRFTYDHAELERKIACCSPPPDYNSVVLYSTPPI

As for `O=c1[nH]cc(Nc2ccccc2)cc1-c1ccccc1Br` [Compound 69, 3-(2-Bromophenyl)-5-(phenylamino)pyridin-2(1H)-one], the remaining activity at 10 µM was 109% at MLK3; 81% on SRPK1; 90% on PRK2; 89% on PAK4; 100% on SmMLCK; 94% on VEG-FR. Moreover, the results for the remaining activity at 10 µM on PKBa and on CAMKKb were 107% and 95%, respectively. Also, the “mean percentage of residual activity, other kinases of the panel (small disks)” value is listed as at least 90% in test [1] (all kinases except p38α MAPK) and at least 65% in [2] (all kinases except p38α MAPK). Also, the “selectivity for p38α MAPK over the other protein kinases incl. p38 isoforms” value in test [1] (panel of 13 kinases) is given as “selective of p38α MAPK over the other protein kinases tested in this panel; also recorded: selective p38α MAPK inhibitor”. The “selectivity for p38α MAPK over the other protein kinases” value in [2] (panel of 50 kinases) is listed as “highly selective”.
